Measurements from US20110160280A1, “CANCER-RELATED GENES, CDCA5, EPHA7, STK31 AND WDHD1” (Oncotherapy Science, Inc., priority 2007, published 2011).

How the values were obtained:
[1] = test system: A549 cells; experiment: Time-lapse imaging (live cell imaging) after siRNA for WDHD1; type: cell-based, human; conditions: control cells divided about every 10 hours
Description: Cells were grown on a 35 mm glass-bottom dish in phenol red-free Dulbecco's modified Eagle's medium containing 10% fetal bovine serum (FBS). Cells were transfected with siRNA and subjected to time-lapse imaging using a computer-assisted fluorescence microscope (Olympus, LCV100) equipped with an objective lens (Olympus, UAPO 40×/340 N.A.=0.90), a halogen lamp, a red LED (620 nm), a CCD camera (Olympus, DP30), differential interference contrast (DIC) optical components, and interference filters. For DIC imaging, the red LED was used with a filter cube containing an analyzer. Image acquisition and analysis were performed by using MetaMorph 6.13 software (Universal Imaging, Media, Pa.).

[2] = test system: mitotic cells; experiment: Immunocytochemical analysis of mitotic cells after siRNA for WDHD1; type: cell-based; conditions: control si-LUC: normal metaphase figures
Description: Cultured cells were washed twice with PBS(−), fixed in 4% formaldehyde solution for 30 min at room temperature and then rendered permeable with PBS(−) containing 0.1% Triton X-100 for 3 min at room temperature. Nonspecific binding was blocked by Casblock (ZYMED, San Francisco, Calif.) for 10 min at room temperature for CDCA5 and WDHD1, by Casblock (ZYMED, San Francisco, Calif.) for 7 min at room temperature for EPHA7, 3% bovine serum albumin in PBS(−) for 7 min at room temperature for STK31. Cells were then incubated for 60 min (for CDCA5, EPHA7 or STK31) or 10 min (for WDHD1) at room temperature with primary antibodies diluted in PBS containing 3% BSA. After being washed with PBS(−), the cells were stained by a donkey anti-rabbit secondary antibody conjugated to Alexa488 (Molecular Probes) (for CDCA5 and EPHA7) or FITC-conjugated secondary antibody (Santa Cruz Biotechnology, Santa Cruz, Calif.) (for STK31 and WDHD1) at 1:1,000 dilutions for 60 min at room temperature. After another wash with PBS(−), each specimen was mounted with Vectashield (Vector Laboratories, Inc., Burlingame, Calif.) containing 4′,6-diamidino-2-phenylindole and visualized with Spectral Confocal Scanning Systems (TSC SP2 AOBS; Leica Microsystems, Wetzlar, Germany).

[3] = test system: A549 cells; experiment: Flow cytometry (cell cycle) after si-WDHD1; type: cell-based, human
Description: Cells were collected in PBS, and fixed in 70% cold ethanol for 30 minutes. After treatment with 100 μg/mL RNase (Sigma/Aldrich, St. Louis, Mo.), the cells were stained with 50 μg/mL propidium iodide (Sigma/Aldrich, St.) in PBS. Flow cytometry was done on a Becton Dickinson FACScan and analyzed by ModFit software (Verity Software House, Inc., Topsham, Me.). The cells selected from at least 20,000 ungated cells were analyzed for DNA content.

[4] = test system: A549 cells; experiment: RNA interference assay (oligo based): colony formation and MTT assays; type: cell-based, human
[5] = test system: WDHD1; experiment: RNA interference assay: WDHD1 knockdown by RT-PCR; type: cell-based, human; conditions: A549, LC319 and TE9 cells
Description: Total RNA was extracted from cultured cells using Trizol reagent (Life Technologies, Inc. Gaithersburg, Md.) according to the manufacturer's protocol. Extracted RNAs were treated with DNase I (Nippon Gene, Tokyo, Japan) and reversely-transcribed using oligo (dT) primer and SuperScript II. The primer sets for amplification were as follows:
(§1) Small interfering RNA (siRNA) duplexes (Dharmacon, Inc., Lafayette, Colo.) (600 pM) were transfected into lung-cancer cell lines LC319 and A549 for CDCA5; NCI-H520 and SBC-5 for EPHA7; LC319 for WDHD1, and esophageal cancer cell line TE9 for WDHD1 using 30 μl of Lipofectamine 2000 (Invitrogen, Carlsbad, Calif.) following the manufacturer's protocol. The transfected cells were cultured for 7 days, and the number of colonies was counted by Giemsa staining, and viability of cells was evaluated by 3-(4,5-dimethylthiazol-2-yl)-2,5-diphenyltetrazolium bromide (MTT) assay (cell counting kit-8 solution; Dojindo Laboratories, Kumanoto, Japan), at 7 days after transfection. To confirm suppression of gene expression, semiquantitative RT-PCR was carried out with synthesized primers described above.

[6] = test system: LC319 cells; experiment: RNA interference assay (oligo based): colony formation and MTT assays; type: cell-based, human
Description: as §1

[7] = test system: TE9 cells; experiment: as above; type: cell-based, human
Description: as §1

[8] = synchronized A549 cells after cell cycle release

Substance: 5′-GGUAAUACGUGGACUCCUA UU-3′ (GGUAAUACGUGGACUCCUAUU; listed as RNA, chemistry not given here) [si-WDHD1-#2]
- cell division and cell death (time-lapse microscopy) [1]: divided slowly and died shortly after cell division
- chromosome congression in mitotic cells [2]: chromosomes failed to congress at the spindle midzone
- number of cells in S phase ([3]; A549 cells, 24˜72 hours after transfection): continuously decreased
- proportion of cells in G0/G1 phase ([3]; A549 cells, 48˜72 hours after transfection): increased
- number of cells in G0/G1 phase [3, 8]: increased
- progression of S phase [3, 8]: delayed
- number of A549 cells (MTT and colony-formation assays), siRNA against WDHD1 [4]: drastic reduction in the number of cells
- WDHD1 knockdown effect (RT-PCR) [5]: knockdown effect was confirmed
- number of LC319 cells (MTT and colony-formation assays), siRNA against WDHD1 [6]: drastic reduction in the number of cells
- number of TE9 cells (MTT and colony-formation assays), siRNA against WDHD1 [7]: drastic reduction in the number of cells
